# Results published in patent publication US9346758B2, “Pyridinone compounds for use in photodynamic therapy” (UNIVERSITY OF EXETER, priority 2012, dated 2016).
# Several values for one entry are separate records, joined by “and”; a condition that tells them apart may be missing. Equal values may be shown once.
# Key:
# [1] = test system: human epithelial squamous cell carcinoma cells (A431); experiment: Cell viability (NRU assay) after irradiation with varying incubation periods (2, 3 or 4 hours); format: cell-based; details: for cell viability: A431 cells, then red light 37 J/cm^2, NRU assay, individual replicates, hydrochloride
# Experimental: Neutral red is an inert dye actively taken up and stored by viable (living) cells, an action which is unable to be performed by non-viable cells, therefore the level of neutral red taken up is directly proportional to the number of viable cells present following a given exposure. Following uptake of the dye, cells are lysed and the level of neutral red quantified using a plate reader.
# After the relevant incubation period, the cells were irradiated with red light (37 J/cm^2; 635±2 nm; Aktilite, Galderma, UK).
# [2] = test system: human dermal fibroblasts (84BR); experiment: PDT efficacy: cell viability (NRU assay) following irradiation; details: 84BR; lowest concentration employed (250 μM)
# Experimental: (§1) To assess the effect of AP2-18 (8) on PpIX-induced PDT efficacy, the same three cell types were exposed to equimolar concentrations of ALA, ALA and CP94 (3), MAL, MAL and CP94 (3), and AP2-18 (8) (as described previously) and incubated in the dark for 4 hours. The level of PpIX accumulation was then quantified as before, prior to irradiation with red light (37 J/cm^2; 635±2 nm; Aktilite, Galderma, UK).
# [3] = test system: human epithelial squamous cell carcinoma cells (A431); experiment: as above; format: cell-based
# Experimental: as §1
# [4] = test system: human glioblastoma cells (U87MG); experiment: PpIX fluorescence accumulation; format: cell-based; details: for PpIX accumulation (fluorescence): hydrochloride
# Experimental: (§2) Briefly, cells were seeded at 2×10^4 cells per well in a 96 well plate and left to adhere overnight. Test solutions were prepared on the day of the assay and applied to the cells. The level of PpIX produced was monitored using a multi-well fluorescent plate reader with a 400 (±30) nm excitation filter and a 645 (±40) nm emission filter, with the level of fluorescence produced being directly proportional to the level of PpIX present. Readings were taken hourly for 6 hours and were conducted under low light conditions to reduce photobleaching of PpIX.
# (§3) These were tested alongside equimolar concentrations of ALA, ALA and CP94 (3), MAL, and MAL and CP94 (3), with all test compounds being investigated in human dermal fibroblasts (84BR; FIGS. 2A and 2B), human epithelial squamous cell carcinoma cells (A431; FIGS. 3A and 3B) and human glioblastoma cells (U87MG; FIGS. 4A and 4B).
# [5] = test system: human epithelial squamous cell carcinoma cells (A431); experiment: PpIX fluorescence accumulation; details: for PpIX accumulation: A431 cells, hydrochloride;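 for all read-outs here: PpIX fluorescence accumulating inside A431 cells, read under dim light to limit photobleaching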
# Experimental: as §2, §3
# [6] = test system: human glioblastoma cells (U87MG); experiment: PDT efficacy: cell viability (NRU assay) following irradiation; format: cell-based
# Experimental: as §1
# [7] = test system: human epithelial squamous cell carcinoma cells (A431); experiment: PpIX fluorescence after varying incubation periods (2, 3 or 4 hours); details: for PpIX fluorescence: A431 cells, individual replicates, hydrochloride
# Experimental: as §2
# [8] = test system: human dermal fibroblasts (84BR); experiment: PpIX fluorescence accumulation; details: 250-1000 μM, up to 6 hours
# Experimental: as §2, §3
structure (smiles),measurement,setting,value
"CCc1c(O)c(O)cc[n+]1CCOC(=O)CCC(=O)CN.Cl.[Cl-] [AP2-18, 1-(2-(5-amino-4-oxopentanoyloxy)ethyl)-2-ethyl-3,4-dihydroxypyridinium chloride hydrochloride]",cell kill on irradiation compared with ALA or MAL,"[1]; A431, incubation 2, 3 or 4 hours, greatest cytotoxicity at 4 hours",statistically significant increases in cell kill
same,cell viability,"[1]; 250 μM (each drug), incubation time 2 hours, 250 µM",97.7 and 86.79 and 91.73 and 133.2414 and 62.66 and 106.5847 and 64.29 and 96.8 and 131.2186
same,cell viability,"[1]; 250 μM (each drug), incubation time 3 hours, 250 µM",86.93 and 101.2448 and 79.7 and 62.46 and 60.17 and 62.3481 and 33.56 and 37.89 and 49.02 and 32.65 and 47.7341 and 52.75
same,cell viability,"[1]; 250 μM (each drug), incubation time 4 hours, 250 µM",7.088 and 6.582 and 5.929 and 7.34 and 6.99 and 6.52 and 32.03 and 32.79 and 31.11
same,cell viability,"[1]; 500 μM (each drug), incubation time 2 hours, 500 µM",12.86 and 12.74 and 16.04 and 53.68 and 42.01 and 55.47 and 60.64 and 70.31 and 124.24
same,cell viability,"[1]; 500 μM (each drug), incubation time 3 hours, 500 µM",102.5418 and 125.9215 and 67.1 and 33.04 and 31.45 and 38.59 and 68.88 and 42.19 and 58.38 and 49.61 and 46.3628 and 69.56
same,cell viability,"[1]; 500 μM (each drug), incubation time 4 hours, 500 µM",6.023 and 6.336 and 6.646 and 7.159 and 7.63 and 6.693 and 42.88 and 32.5727 and 25.11
same,cell viability,"[1]; 1000 μM (each drug), incubation time 2 hours, 1000 µM",96.31 and 83.65 and 82.62 and 98.19 and 107.1891 and 53.91 and 80.39 and 46.21 and 97.83
same,cell viability,"[1]; 1000 μM (each drug), incubation time 3 hours, 1000 µM",92.47 and 93.28 and 87.85 and 39.73 and 38.74 and 37.68 and 45.15 and 47.25 and 41.05 and 50.59 and 59.84 and 82.37
same,cell viability,"[1]; 1000 μM (each drug), incubation time 4 hours, 1000 µM",6.315 and 6.002 and 5.891 and 7.607 and 8.758 and 7.362 and 38.09 and 34.2 and 25.3
same,reducing cell viability following PDT vs other treatment parameters,[2],significantly better
same,reduction in cell viability following PDT,[3],significant reductions in cell viability
same,PpIX accumulation (fluorescence),"[4]; 250 μM (combinations: 250 μM each), exposure time 2 hours",114.3 and 128.3 and 146.3 and 125.67 and 126.67 and 129.67 and 130.67 and 128.67
same,PpIX accumulation (fluorescence),"[4]; 250 μM (combinations: 250 μM each), exposure time 3 hours",172 and 199 and 221 and 195 and 196 and 189.33 and 195.33 and 184.33
same,PpIX accumulation (fluorescence),"[4]; 500 μM (combinations: 500 μM each), exposure time 3 hours",312 and 308 and 267 and 279 and 251.33 and 271.33 and 273.33
same,PpIX accumulation (fluorescence),"[4]; 1000 μM (combinations: 1000 μM each), exposure time 4 hours",519 and 469 and 361 and 447 and 468 and 478 and 456 and 499
same,PpIX accumulation vs ALA or MAL alone or with CP94,"[4]; 250-1000 μM, up to 6 hours",significantly increase PpIX accumulation
same,PpIX accumulation vs ALA or MAL alone or with CP94,"[5]; A431, 250-1000 μM, up to 6 hours",significantly increase PpIX accumulation
same,PpIX accumulation,"[5]; 500 μM (each component), exposure time 1 hour",21.33 and 33.67 and 22.67 and 28.67 and 33 and 32 and 29
same,PpIX accumulation,"[5]; 1000 μM (each component), exposure time 1 hour",41.33 and 38.33 and 49.33 and 33.67 and 34.67 and 36.67 and 49 and 51
same,PpIX accumulation,"[5]; 1000 μM (each component), exposure time 2 hours",58.33 and 69.33 and 58.67 and 63.67 and 78.67 and 97.67 and 93.67
same,PpIX-induced PDT cell kill,[6],highly effective PpIX-induced PDT cell kill
same,PpIX vs highest doses of ALA or MAL (1000 μM) at 4 hours,"[7]; A431, 250 μM, 2 hours incubation",produced more PpIX
same,PpIX levels vs other treatment parameters,"[7]; A431, 1000 μM, four hours incubation",statistically significant higher PpIX levels than any other treatment parameters investigated
same,PpIX fluorescence,"[7]; 500 μM (each drug), incubation time 2 hours",35.33 and 33.33 and 57.67 and 49.67 and 55.67 and 58.67 (2×) and 69.67 and 58.33
same,PpIX fluorescence,"[7]; 500 μM (each drug), incubation time 3 hours",59.33 and 67.33 and 62.33 and 114.33 (2×) and 109.33 and 119.67 and 139.67 and 118.67
same,PpIX fluorescence,"[7]; 500 μM (each drug), incubation time 4 hours",71.67 and 82.67 and 73.67 and 137.67 and 136.67 and 140.67 and 151.67 and 177.67 and 146.67
same,PpIX fluorescence,"[7]; 1000 μM (each drug), incubation time 2 hours",58.33 and 69.33 and 58.67 (2×) and 63.67 and 78.67 and 97.67 and 93.67 (2×)
same,PpIX fluorescence,"[7]; 1000 μM (each drug), incubation time 3 hours",96.33 and 100.33 and 116.33 and 117.33 and 114.33 and 118.33 and 144.67 and 180.67 and 182.67
same,PpIX fluorescence,"[7]; 1000 μM (each drug), incubation time 4 hours",113.67 and 119.67 and 140.67 and 145.67 and 139.67 and 141.67 and 177.67 and 221.67 and 225.67
same,PpIX accumulation vs ALA or MAL alone or with CP94,[8],significantly increase PpIX accumulation
